Consider 26 compounds from patent publication US10730870B2, “Compounds and methods for the enhanced degradation of targeted proteins” (Arvinas, Inc., priority 2015, dated 2020).

In the test the target is VHL (Homo sapiens (Human), UniProt P40337). The test is described as follows: VHL fluorescence polarization (FP) competition assay. The test is classed as binding. Background: Fluorescence polarisation rises when a labelled molecule tumbles more slowly, as on binding a larger partner.

Where only a bound is given, the exact number is not on record here.

`CC(C)[C@@H](C(=O)N1C[C@H](O)C[C@H]1C(=O)NCc1ccc(-c2ccccc2)cc1)N1Cc2ccccc2C1=O` [Example 40, (2S,4R)—N-(biphenyl-4-ylmethyl)-4-hydroxy-1-((S)-3-methyl-2-(1-oxoisoindolin-2-yl)butanoyl)pyrrolidine-2-carboxamide] had an IC50 (0.25% in DMSO) of 17500 nM, a concentration for half-maximal inhibition (IC50) (1% in DMSO) of 2360 nM and a half-inhibitory concentration (IC50) (10% in DMSO) of 3920 nM.

For `CC(=O)NC(C(=O)N1C[C@H](O)C[C@H]1C(=O)NCc1ccc(-c2scnc2C)cc1)C(F)(F)F` (stereo partly drawn) [Example 90, (2S,4R)-1-(2-acetamido-3,3,3-trifluoropropanoyl)-4-hydroxy-N-(4-(4-methylthiazol-5-yl)benzyl)pyrrolidine-2-carboxamide], the half-inhibitory concentration (IC50) is 45200 nM (1% in DMSO) and 47900 nM (10% in DMSO).

As to `Cc1ncsc1-c1ccc(CNC(=O)[C@@H]2C[C@@H](O)CN2C(=O)[C@@H](NC(=O)c2ccccc2)C(C)(C)C)cc1` [Example 29, (2S,4R)-1-((S)-2-benzamido-3,3-dimethylbutanoyl)-4-hydroxy-N-(4-(4-methylthiazol-5-yl)benzyl)pyrrolidine-2-carboxamide], the half-maximal inhibitory concentration (IC50) is, setting by setting: (0.25% in DMSO) 2420 nM; (1% in DMSO) 905 nM; (10% in DMSO) 1850 nM.

Take `CC(C)[C@@H](C(=O)N1C[C@H](O)C[C@H]1C(=O)NCc1ccc(-c2scnc2C2CC2)cc1)N1Cc2ccccc2C1=O` [Example 2, (2S,4R)—N-(4-(4-cyclopropylthiazol-5-yl)benzyl)-4-hydroxy-1-((S)-3-methyl-2-(1-oxoisoindolin-2-yl)butanoyl)pyrrolidine-2-carboxamide]: the IC50 turned out to be 2860 nM (0.25% in DMSO), 732 nM (1% in DMSO) and 533 nM (10% in DMSO).

The compound `Cc1ncsc1-c1ccc(CNC(=O)[C@@H]2C[C@@H](O)CN2C(=O)[C@H](C(C)C)N2CCCC2=O)cc1` [Example 98, (2S,4R)-4-hydroxy-1-((S)-3-methyl-2-(2-oxopyrrolidin-1-yl)butanoyl)-N-(4-(4-methylthiazol-5-yl)benzyl)pyrrolidine-2-carboxamide] gave an IC50 (1% in DMSO) of 4150 nM.

Compound `CC(C)[C@@H](C(=O)N1C[C@H](O)C[C@H]1C(=O)NCc1ccc(-c2cncn2C)cc1)N1Cc2ccccc2C1=O` [Example 96, (2S,4R)-4-hydroxy-N-(4-(1-methyl-1H-imidazol-5-yl)benzyl)-1-((S)-3-methyl-2-(1-oxoisoindolin-2-yl)butanoyl)pyrrolidine-2-carboxamide] had a 50% inhibitory concentration (IC50) (1% in DMSO) of 35400 nM.

`CC(C)[C@@H](C(=O)N1C[C@H](O)C[C@H]1C(=O)NCc1ccc(C2CCCCC2)cc1)N1Cc2ccccc2C1=O` [Example 117, (2S,4R)—N-(4-cyclohexylbenzyl)-4-hydroxy-1-((S)-3-methyl-2-(1-oxoisoindolin-2-yl)butanoyl)pyrrolidine-2-carboxamide]: the 50% inhibitory concentration (IC50) (1% in DMSO) is 15500 nM.

Take `Cc1ncsc1-c1ccc(CNC(=O)[C@@H]2C[C@@H](O)CN2C(=O)[C@H](C(C)C)N2Cc3ccccc3C2=O)cc1F` [Example 93, (2S,4R)—N-(3-fluoro-4-(4-methylthiazol-5-yl)benzyl)-4-hydroxy-1-((S)-3-methyl-2-(1-oxoisoindolin-2-yl)butanoyl)pyrrolidine-2-carboxamide]: the 50% inhibitory concentration (IC50) (1% in DMSO) was 1200 nM.

For the compound `Cc1ncsc1-c1ccc(CNC(=O)[C@@H]2C[C@@H](O)CN2C(=O)C2(N3Cc4ccccc4C3=O)CC2)cc1` [Example 49, (2S,4R)-4-hydroxy-N-(4-(4-methylthiazol-5-yl)benzyl)-1-(1-(1-oxoisoindolin-2-yl)cyclopropanecarbonyl)pyrrolidine-2-carboxamide], the IC50 (10% in DMSO) is 244000 nM.

For the setting “1% in DMSO”, `CC(C)[C@@H](C(=O)N1C[C@H](O)C[C@H]1C(=O)NCc1ccc(-c2ccnn2C)cc1)N1Cc2ccccc2C1=O` [Example 92, (2S,4R)-4-hydroxy-N-(4-(1-methyl-1H-pyrazol-5-yl)benzyl)-1-((S)-3-methyl-2-(1-oxoisoindolin-2-yl)butanoyl)pyrrolidine-2-carboxamide] gave an IC50 of 1650 nM.

Take `Cc1ncsc1-c1ccc(CNC(=O)[C@@H]2C[C@@H](O)CN2C(=O)[C@@H](NC(=O)CNC(=O)OC(C)(C)C)C(C)(C)C)cc1` [Example 124, tert-butyl 2-((S)-1-((2S,4R)-4-hydroxy-2-(4-(4-methylthiazol-5-yl)benzylcarbamoyl)pyrrolidin-1-yl)-3,3-dimethyl-1-oxobutan-2-ylamino)-2-oxoethylcarbamate]: under “1% in DMSO”, the IC50 amounted to 1110 nM. The IC50 values of the last two compounds are within 1.5-fold of each other.

`CC(C)[C@@H](C(=O)N1C[C@H](O)C[C@H]1C(=O)NCc1ccc(C2CCOCC2)cc1)N1Cc2ccccc2C1=O` [Example 118, (2S,4R)-4-hydroxy-1-((S)-3-methyl-2-(1-oxoisoindolin-2-yl)butanoyl)-N-(4-(tetrahydro-2H-pyran-4-yl)benzyl)pyrrolidine-2-carboxamide] registered an IC50 (1% in DMSO) of 330000 nM. Compared with the last compound, the IC50 is about 300-fold higher.

As to `CCc1ncsc1-c1ccc(CNC(=O)[C@@H]2C[C@@H](O)CN2C(=O)[C@H](C(C)C)N2Cc3ccccc3C2=O)cc1` [Example 5, (2S,4R)—N-(4-(4-ethylthiazol-5-yl)benzyl)-4-hydroxy-1-((S)-3-methyl-2-(1-oxoisoindolin-2-yl)butanoyl)pyrrolidine-2-carboxamide], the IC50 reads like this: (0.25% in DMSO) 7720 nM; (1% in DMSO) 799 nM; (10% in DMSO) 1580 nM.

As to `Cc1ncsc1-c1ccc(CNC(=O)[C@@H]2C[C@](C)(O)CN2C(=O)[C@H](C(C)C)N2Cc3ccccc3C2=O)cc1` [Example 62, (2S,4S)-4-hydroxy-4-methyl-1-((S)-3-methyl-2-(1-oxoisoindolin-2-yl)butanoyl)-N-(4-(4-methylthiazol-5-yl)benzyl)pyrrolidine-2-carboxamide], the “VHL FP Assay IC50” value is “Not Active” (1% in DMSO) and “Not Active” (10% in DMSO).

For the setting “1% in DMSO”, `CC(C)[C@@H](C(=O)N1C[C@H](O)C[C@H]1C(=O)NCc1ccc(-c2ccno2)cc1)N1Cc2ccccc2C1=O` [Example 136, (2S,4R)-4-hydroxy-N-(4-(isoxazol-5-yl)benzyl)-1-((S)-3-methyl-2-(1-oxoisoindolin-2-yl)butanoyl)pyrrolidine-2-carboxamide] yielded an IC50 of 5590 nM.

`Cc1ncsc1-c1ccc(CNC(=O)[C@@H]2C[C@@H](O)CN2C(=O)C2(N3Cc4ccccc4C3=O)CCCCC2)cc1` [Example 54, (2S,4R)-4-hydroxy-N-(4-(4-methylthiazol-5-yl)benzyl)-1-(1-(1-oxoisoindolin-2-yl)cyclohexanecarbonyl)pyrrolidine-2-carboxamide] returned an IC50 (1% in DMSO) of 834 nM and a concentration for half-maximal inhibition (IC50) (10% in DMSO) of 1210 nM.

`Cc1ncsc1-c1ccc(CNC(=O)[C@@H]2C[C@@H](O)CN2C(=O)[C@@H](NC(=O)[C@H](C)NC(=O)OC(C)(C)C)C(C)(C)C)cc1` [Example 122, tert-butyl (S)-1-((S)-1-((2S,4R)-4-hydroxy-2-(4-(4-methylthiazol-5-yl)benzylcarbamoyl)pyrrolidin-1-yl)-3,3-dimethyl-1-oxobutan-2-ylamino)-1-oxopropan-2-ylcarbamate] returned an IC50 (1% in DMSO) of 2180 nM.

For the compound `CC(C)[C@@H](C(=O)N1C[C@H](O)C[C@H]1C(=O)NCc1ccc(-c2cnn[nH]2)cc1)N1Cc2ccccc2C1=O` [Example 100, (2S,4R)—N-(4-(1H-1,2,3-triazol-5-yl)benzyl)-4-hydroxy-1-((S)-3-methyl-2-(1-oxoisoindolin-2-yl)butanoyl)pyrrolidine-2-carboxamide], the IC50 (1% in DMSO) stood at 9770 nM.

On to `Cc1ncn(C)c1-c1ccc(CNC(=O)[C@@H]2C[C@@H](O)CN2C(=O)[C@H](C(C)C)N2Cc3ccccc3C2=O)cc1` [Example 103, (2S,4R)—N-(4-(1,4-dimethyl-1H-imidazol-5-yl)benzyl)-4-hydroxy-1-((S)-3-methyl-2-(1-oxoisoindolin-2-yl)butanoyl)pyrrolidine-2-carboxamide], for which the 50% inhibitory concentration (IC50) (1% in DMSO) was determined as 33800 nM.

`CC[C@H](C)[C@H](NC(C)c1ccccc1)C(=O)N1C[C@H](O)C[C@H]1C(=O)NCc1ccc(-c2scnc2C)cc1` (stereo partly drawn) [Example 105, (2S,4R)-4-hydroxy-1-((2S,3S)-3-methyl-2-(1-phenylethylamino)pentanoyl)-N-(4-(4-methylthiazol-5-yl)benzyl)pyrrolidine-2-carboxamide] showed an IC50 (1% in DMSO) of 37700 nM.

`Cc1ncsc1-c1ccc(CNC(=O)[C@@H]2C[C@@H](O)CN2C(=O)[C@@H](NC(=O)c2cccnc2)C(C)(C)C)cc1` [Example 84, N—((S)-1-((2S,4R)-4-hydroxy-2-(4-(4-methylthiazol-5-yl)benzylcarbamoyl)pyrrolidin-1-yl)-3,3-dimethyl-1-oxobutan-2-yl)nicotinamide]: the IC50 (1% in DMSO) stood at 1240 nM and the concentration for half-maximal inhibition (IC50) (10% in DMSO) worked out at 1460 nM.

Turning to `CC[C@H](C)[C@H](NCCc1ccccc1)C(=O)N1C[C@H](O)C[C@H]1C(=O)NCc1ccc(-c2scnc2C)cc1` [Example 104, (2S,4R)-4-hydroxy-1-((2S,3S)-3-methyl-2-(phenethylamino)pentanoyl)-N-(4-(4-methylthiazol-5-yl)benzyl)pyrrolidine-2-carboxamide], where the note is “1% in DMSO”, the IC50 is more than 10000 nM.

In the case of `Cc1ncsc1-c1ccc(CNC(=O)[C@@H]2C[C@@H](S)CN2C(=O)[C@H](C(C)C)N2Cc3ccccc3C2=O)cc1` [Example 119, (2S,4R)-4-mercapto-1-((S)-3-methyl-2-(1-oxoisoindolin-2-yl)butanoyl)-N-(4-(4-methylthiazol-5-yl)benzyl)pyrrolidine-2-carboxamide], the “VHL FP Assay IC50” value (1% in DMSO) is listed as “Not Active”.

`Cc1ncsc1-c1ccc(CNC(=O)[C@@H]2[C@@H](O)[C@@H](O)CN2C(=O)[C@H](C(C)C)N2Cc3ccccc3C2=O)cc1` [Example 147, (2S,3R,4S)-3,4-dihydroxy-1-((S)-3-methyl-2-(1-oxoisoindolin-2-yl)butanoyl)-N-(4-(4-methylthiazol-5-yl)benzyl)pyrrolidine-2-carboxamide] showed an IC50 (1% in DMSO) of 12400 nM.

For the compound `Cc1ncsc1-c1ccc(CNC(=O)[C@@H]2C[C@@H](O)CN2C(=O)[C@H](C(C)C)N2Cc3ccc(Cl)cc3C2=O)cc1` [Example 74, (2S,4R)-1-((S)-2-(6-chloro-1-oxoisoindolin-2-yl)-3-methylbutanoyl)-4-hydroxy-N-(4-(4-methylthiazol-5-yl)benzyl)pyrrolidine-2-carboxamide], the IC50 stood at 450 nM (1% in DMSO) and 264 nM (10% in DMSO).

Turning to `Cc1ncsc1-c1ccc(CNC(=O)[C@@H]2C[C@@H](O)CN2C(=O)[C@H](C(C)C)N2Cc3c(Cl)cccc3C2=O)cc1` [Example 68], the concentration for half-maximal inhibition (IC50) runs as follows: (1% in DMSO) 972 nM; (10% in DMSO) 668 nM.

Broadly, the IC50 is the concentration needed to halve the response being measured.
